What was measured:
[1] = target: T1, sodium taurocholate cotransporting polypeptide (NTCP) (Homo sapiens, UniProt Q14973); assay: [3H]-taurocholate uptake inhibition in NTCP-GFP Flp-In T-REx […] cells (IC50 […] in differentiated HuH-7); assay type: cell-based
T1 construct: gene SLC10A1; GFP-tagged human NTCP (NM_003049)
T1 sequence (Q14973 1-349): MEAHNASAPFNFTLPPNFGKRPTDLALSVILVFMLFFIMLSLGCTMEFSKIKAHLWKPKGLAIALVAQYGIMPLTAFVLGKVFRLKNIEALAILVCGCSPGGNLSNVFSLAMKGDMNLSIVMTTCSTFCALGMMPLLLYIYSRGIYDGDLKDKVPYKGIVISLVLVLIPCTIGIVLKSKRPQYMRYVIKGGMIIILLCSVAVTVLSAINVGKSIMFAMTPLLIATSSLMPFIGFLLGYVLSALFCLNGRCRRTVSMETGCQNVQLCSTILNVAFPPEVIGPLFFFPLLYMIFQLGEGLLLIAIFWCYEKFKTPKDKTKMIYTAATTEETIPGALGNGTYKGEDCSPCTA

[2] = target: T1, sodium taurocholate cotransporting polypeptide (NTCP); assay: [3H]-taurocholate uptake inhibition at […] in NTCP-GFP Flp-In T-REx […] and differentiated HuH-7 cells; assay type: cell-based

`CO[C@H]1C[C@@H]2CC[C@@H](C)[C@@](O)(O2)C(=O)C(=O)N2CCCC[C@H]2C(=O)O[C@H]([C@H](C)C[C@@H]2CC[C@@H](OCCO)[C@H](OC)C2)CC(=O)[C@H](C)/C=C(\C)[C@@H](O)[C@@H](OC)C(=O)[C@H](C)C[C@H](C)/C=C/C=C/C=C/1C` [everolimus] gave an IC50 [1] of 6.7 ± 1.3 µM.

For `CO[C@H]1C[C@@H]2CC[C@@H](C)[C@@](O)(O2)C(=O)C(=O)N2CCCC[C@H]2C(=O)O[C@H]([C@H](C)C[C@@H]2CC[C@@H](OC(=O)C(C)(CO)CO)[C@H](OC)C2)CC(=O)[C@H](C)/C=C(\C)[C@@H](O)[C@@H](OC)C(=O)[C@H](C)C[C@H](C)/C=C/C=C/C=C/1C` [temsirolimus], the “[3H]-taurocholate uptake inhibition at 10 μM in NTCP-GFP Flp-In T-REx 293 and di” value [2] was “everolimus, sirolimus and temsirolimus significantly inhibited TCA accumulation in Na^+-containing ECF buffer and NTCP-mediated TCA accumulation”.

— publication PMC10073475, “Effect of mTOR inhibitors on sodium taurocholate cotransporting polypeptide (NTCP) function in vitro” (Frontiers in Pharmacology, 2023)
